Test: Pharmacokinetic profile after single oral, intranasal and intravenous betahistine in beagle dogs, Example 5
Type: in vivo
Conditions: beagle, dog, in vivo; for concentration at 6 h / concentration at 24 h / concentration at 0 h / concentration at 5 min / concentration at 0.167 h / concentration at 0.333 h / concentration at 0.5 h / concentration at 1 h / concentration at 2 h / concentration at 3 h: Betahistine Plasma Concentration
Procedure: In this study, the pharmacokinetic profile of betahistine was evaluated after a single dose administration of betahistine in male and female beagle dogs (age 5-7 months; weight of 5-11 kg, within a range of 3 kg for each sex) for three routes of administration: oral, intranasal, and intravenous.
On Day 1 of the study, betahistine (BH) was delivered orally at a dose of 12 mg/kg, 24 mg/kg, or 48 mg/kg. Each treatment group comprised 8 animals (4 males and 4 females). For pharmacokinetic assessment, plasma samples were collected prior to dosing, and then at 5, 10, 20 and 30 min, 1, 2, 3, 6, 24 hours after dosing.
On Day 8 of the study, the animals that received oral BH at a dose of 12 mg/kg were administered the test betahistine composition intranasally at a dose of 40 mg betahistine dihydrochloride; the animals that received oral BH at a dose of 24 mg/kg were administered the test betahistine composition intranasally at a dose of 80 mg betahistine dihydrochloride; and the animals that received oral BH at a dose of 48 mg/kg were administered the test betahistine composition intranasally at a dose of 120 mg betahistine dihydrochloride. The test betahistine composition was delivered intranasally in a single dose via an Aptar nasal spray pump device at a total dose level of 40, 80 and 120 mg of betahistine dihydrochloride. Plasma samples were collected prior to dosing, and then at 5, 10, 20 and 30 min, 1, 2, 3, 6, 24 hours after dosing.
On Day 15 of the study, the animals that received oral BH at a dose of 12 mg/kg and the test betahistine composition intranasally at a dose of 40 mg betahistine dihydrochloride were administered a bolus intravenous injection of betahistine at a dose of 0.44 mg/kg. Plasma samples were collected prior to dosing, and then at 5, 10, 20 and 30 min, 1, 2, 3, 6, 24 hours after dosing.
Betahistine 13CD3 dihydrochloride and 2-pyridylacetic acid-D4 hydrochloride were used as respective internal standards. The calibration range for betahistine was 0.05-250 ng/mL and for 2-PAA 2.00-3000 ng/mL using a plasma sample volume of 0.50 mL.
For determination of betahistine, the method involved liquid-liquid extraction, for 2-PAA, the method involved protein precipitation. Plasma samples were prepared for betahistine by extraction under basic conditions with an organic solvent, then the organic phase was dried, reconstituted and transferred for LC/MS-MS analysis. […] Sample analysis was performed using reversed phase chromatography.

[1] = male, inhaled or intranasal, 5 mg/kg
[2] = male, inhaled or intranasal, 9.8 mg/kg
[3] = male, inhaled or intranasal, 15.8 mg/kg

CNCCc1ccccn1 [betahistine]
concentration at 6 h (female, po, 24 mg/kg): 0.342 ng/mL
concentration at 24 h (female, po, 24 mg/kg): 0 ng/mL
AUC(0-6)/D (female, po, 48 mg/kg): 1.61 ± 0.528 hr*ng/mL/(mg/kg)
AUC(0-inf) (female, po, 48 mg/kg): 69.2 ± 23.3 ng·h/mL
Cmax (female, po, 48 mg/kg): 33.5 ± 9.11 ng/mL
Cmax/D (female, po, 48 mg/kg): 0.697 ± 0.190 ng/mL/(mg/kg)
Oral AUC/dose (female, po, 48 mg/kg): 1.61 (h · ng/mL)/(mg/kg)
Tmax (female, po, 48 mg/kg): 60 min
half-life (female, po, 48 mg/kg): 35.9 min
AUC(0-t) (female, po, 48 mg/kg, AUC(0-6)): 77.5 ± 25.4 ng·h/mL
AUC(0-t) (female, po, 48 mg/kg, AUC(0-t)): 77.5 ± 25.4 ng·h/mL
concentration at 0 h (female, po, 48 mg/kg): 0 ng/mL
concentration at 5 min (female, po, 48 mg/kg): 9.87 ng/mL
concentration at 0.167 h (female, po, 48 mg/kg): 9.24 ng/mL
concentration at 0.333 h (female, po, 48 mg/kg): 11.5 ng/mL
concentration at 0.5 h (female, po, 48 mg/kg): 19.4 ng/mL
concentration at 1 h (female, po, 48 mg/kg): 32.8 ng/mL
concentration at 2 h (female, po, 48 mg/kg): 21.3 ng/mL
concentration at 3 h (female, po, 48 mg/kg): 10.1 ng/mL
concentration at 6 h (female, po, 48 mg/kg): 0.64 ng/mL
concentration at 24 h (female, po, 48 mg/kg): 0 ng/mL
AUC(0-inf) [1]: 131 ng·h/mL
AUC(0-t)/D [1]: 36.4 ± 24.4 hr*ng/mL/(mg/kg)
Cmax [1]: 598 ng/mL
Cmax/D [1]: 120 ± 90.1 ng/mL/(mg/kg)
Intranasal AUC/dose [1]: 36.4 (h · ng/mL)/(mg/kg)
Tmax [1]: 10.2 min
AUC(0-t) (male, inhaled or intranasal, 5 mg/kg, AUC(0-6)): 178 ± 122 ng·h/mL
AUC(0-t) (male, inhaled or intranasal, 5 mg/kg, AUC(0-t)): 182 ± 122 ng·h/mL
AUC(0-inf) [2]: 202 ± 156 ng·h/mL
AUC(0-t)/D [2]: 17.5 ± 14.3 hr*ng/mL/(mg/kg)
Cmax [2]: 735 ng/mL
Cmax/D [2]: 75.0 ± 56.9 ng/mL/(mg/kg)
Intranasal AUC/dose [2]: 17.5 (h · ng/mL)/(mg/kg)
Tmax [2]: 7.8 min
AUC(0-t) (male, inhaled or intranasal, 9.8 mg/kg, AUC(0-6)): 168 ± 140 ng·h/mL
AUC(0-t) (male, inhaled or intranasal, 9.8 mg/kg, AUC(0-t)): 172 ± 140 ng·h/mL
AUC(0-t)/D [3]: 12.6 ± 4.97 hr*ng/mL/(mg/kg)
Cmax [3]: 765 ng/mL
Cmax/D [3]: 48.4 ± 23.7 ng/mL/(mg/kg)
Intranasal AUC/dose [3]: 12.6 (h · ng/mL)/(mg/kg)
Tmax [3]: 7.8 min
AUC(0-t) (male, inhaled or intranasal, 15.8 mg/kg, AUC(0-6)): 194 ± 79.8 ng·h/mL
AUC(0-t) (male, inhaled or intranasal, 15.8 mg/kg, AUC(0-t)): 199 ± 78.5 ng·h/mL
AUC(0-inf) (male, iv, 0.44 mg/kg): 18.4 ng·h/mL
AUC(0-t)/D (male, iv, 0.44 mg/kg): 44.3 ± 11.5 hr*ng/mL/(mg/kg)
Cmax (male, iv, 0.44 mg/kg): 58.2 ng/mL
Cmax/D (male, iv, 0.44 mg/kg): 132 ng/mL/(mg/kg)
Tmax (male, iv, 0.44 mg/kg): 4.8 min
Vd (male, iv, 0.44 mg/kg): 32.1 L/kg
clearance (male, iv, 0.44 mg/kg): 398 mL/min/kg
half-life (male, iv, 0.44 mg/kg): 55.8 min
AUC(0-t) (male, iv, 0.44 mg/kg, AUC(0-6)): 19.5 ng·h/mL
AUC(0-t) (male, iv, 0.44 mg/kg, AUC(0-t)): 19.5 ng·h/mL
concentration at 0 h (male, iv, 0.44 mg/kg): 0.11 ng/mL
concentration at 5 min (male, iv, 0.44 mg/kg): 58.2 ng/mL
concentration at 0.167 h (male, iv, 0.44 mg/kg): 29.1 ng/mL
concentration at 0.333 h (male, iv, 0.44 mg/kg): 8.06 ng/mL
concentration at 0.5 h (male, iv, 0.44 mg/kg): 5.57 ng/mL
concentration at 1 h (male, iv, 0.44 mg/kg): 0.349 ng/mL
concentration at 2 h (male, iv, 0.44 mg/kg): 0.993 ng/mL
concentration at 3 h (male, iv, 0.44 mg/kg): 0.081 ng/mL
concentration at 6 h (male, iv, 0.44 mg/kg): 1.05 ng/mL
concentration at 24 h (male, iv, 0.44 mg/kg): 0 ng/mL
AUC(0-6)/D (male, po, 12 mg/kg): 1.04 ± 0.168 hr*ng/mL/(mg/kg)
AUC(0-inf) (male, po, 12 mg/kg): 13.3 ng·h/mL
Cmax (male, po, 12 mg/kg): 18.9 ± 9.99 ng/mL
Cmax/D (male, po, 12 mg/kg): 1.58 ± 0.833 ng/mL/(mg/kg)
Oral AUC/dose (male, po, 12 mg/kg): 1.04 (h · ng/mL)/(mg/kg)
Tmax (male, po, 12 mg/kg): 30 min
half-life (male, po, 12 mg/kg): 18.8 min
AUC(0-t) (male, po, 12 mg/kg, AUC(0-6)): 13 ± 2.23 ng·h/mL
AUC(0-t) (male, po, 12 mg/kg, AUC(0-t)): 12.5 ± 2.02 ng·h/mL
concentration at 0 h (male, po, 12 mg/kg): 0 ng/mL
concentration at 5 min (male, po, 12 mg/kg): 1.35 ng/mL
concentration at 0.167 h (male, po, 12 mg/kg): 2.73 ng/mL
concentration at 0.333 h (male, po, 12 mg/kg): 5.8 ng/mL
concentration at 0.5 h (male, po, 12 mg/kg): 18.9 ng/mL
concentration at 1 h (male, po, 12 mg/kg): 5.65 ng/mL
concentration at 2 h (male, po, 12 mg/kg): 0.457 ng/mL
concentration at 3 h (male, po, 12 mg/kg): 0.036 ng/mL
concentration at 6 h (male, po, 12 mg/kg): 0.016 ng/mL
concentration at 24 h (male, po, 12 mg/kg): 0.021 ng/mL
AUC(0-6)/D (male, po, 24 mg/kg): 1.44 ± 0.714 hr*ng/mL/(mg/kg)
AUC(0-inf) (male, po, 24 mg/kg): 34.6 ± 17.1 ng·h/mL
Cmax (male, po, 24 mg/kg): 38.3 ± 28.1 ng/mL
Cmax/D (male, po, 24 mg/kg): 1.60 ± 1.17 ng/mL/(mg/kg)
Oral AUC/dose (male, po, 24 mg/kg): 1.44 (h · ng/mL)/(mg/kg)
Tmax (male, po, 24 mg/kg): 60 min
half-life (male, po, 24 mg/kg): 47.1 min
AUC(0-t) (male, po, 24 mg/kg, AUC(0-6)): 34.5 ± 17.2 ng·h/mL
AUC(0-t) (male, po, 24 mg/kg, AUC(0-t)): 34.5 ± 17.1 ng·h/mL
concentration at 0 h (male, po, 24 mg/kg): 0 ng/mL
concentration at 5 min (male, po, 24 mg/kg): 4.69 ng/mL
concentration at 0.167 h (male, po, 24 mg/kg): 5.05 ng/mL
concentration at 0.333 h (male, po, 24 mg/kg): 23.9 ng/mL
concentration at 0.5 h (male, po, 24 mg/kg): 17.8 ng/mL
concentration at 1 h (male, po, 24 mg/kg): 26.9 ng/mL
concentration at 2 h (male, po, 24 mg/kg): 2.08 ng/mL
concentration at 3 h (male, po, 24 mg/kg): 0.611 ng/mL
concentration at 6 h (male, po, 24 mg/kg): 0.078 ng/mL
concentration at 24 h (male, po, 24 mg/kg): 0 ng/mL
AUC(0-6)/D (male, po, 48 mg/kg): 2.73 ± 0.590 hr*ng/mL/(mg/kg)
AUC(0-inf) (male, po, 48 mg/kg): 133 ng·h/mL
Cmax/D (male, po, 48 mg/kg): 2.13 ± 0.628 ng/mL/(mg/kg)
Oral AUC/dose (male, po, 48 mg/kg): 2.73 (h · ng/mL)/(mg/kg)
Tmax (male, po, 48 mg/kg): 60 min
half-life (male, po, 48 mg/kg): 31.3 min
AUC(0-t) (male, po, 48 mg/kg, AUC(0-6)): 131 ± 28.3 ng·h/mL
AUC(0-t) (male, po, 48 mg/kg, AUC(0-t)): 131 ± 28.3 ng·h/mL
concentration at 0 h (male, po, 48 mg/kg): 0 ng/mL
concentration at 5 min (male, po, 48 mg/kg): 14.3 ng/mL
concentration at 0.167 h (male, po, 48 mg/kg): 35.7 ng/mL
concentration at 0.333 h (male, po, 48 mg/kg): 14.3 ng/mL
concentration at 0.5 h (male, po, 48 mg/kg): 33.7 ng/mL
concentration at 1 h (male, po, 48 mg/kg): 80.2 ng/mL
concentration at 2 h (male, po, 48 mg/kg): 21.7 ng/mL
concentration at 3 h (male, po, 48 mg/kg): 3 ng/mL
concentration at 6 h (male, po, 48 mg/kg): 0.238 ng/mL
concentration at 24 h (male, po, 48 mg/kg): 0 ng/mL

Source: patent publication US20200022963A1, “PHARMACEUTICAL COMPOSITION COMPRISING BETAHISTINE” (Otolanum AG, priority 2017, published 2020)
